Assay [1] deals with Staphylococcus aureus ATCC 29213. In words: Broth microdilution MIC. The settings on record: ATCC29213, read-out: Broth Microdilution MIC. A general note: In broth dilution the organism is exposed to a series of concentrations in liquid medium.
Assay [2] concerns Bacillus subtilis xpt-lacZ. In words: Broth microdilution MIC. In kind it is cell-based. The following applies: B. subtilis xpt-lacZ, read-out: Broth Microdilution MIC.
The subject of a further assay is S. haemolitycus. In words: Susceptibility of isolate panel (MIC50, MIC90, range). The class given is cell-based, S. haemolyticus. The following applies: Staphylococcus haemolyticus, S. haemolitycus, 10 isolates, CAMHB with 2% NaCl. An excerpt: (§1) Reference strains for this study (S. aureus ATCC 29213, ATCC 29740 [bovine mastitis strain Newbould], S. epidermidis ATCC 12228, E. coli ATCC 35695, E. faecalis ATCC 29212) were obtained from the American Type Culture Collection (ATCC, Rockville, MD). S. aureus strains CMRSA-10 and CMRSA-2 were obtained from the Laboratoire de santé publique du Québec (LSPQ, Sainte-Anne-de-Bellevue, QC, Canada) and are Canadian CA-MRSA USA-300 and HA-MRSA USA-100 clones, respectively. The strain E. coli imp4213 (lptD), used as a control in MIC assays, is a derivative of E. coli ATCC 35695 (E. coli MC4100) with an increased membrane permeability. […] Other MRSA strains used in this study are clinical isolates of human origin obtained from the microbiology laboratory of the Centre Hospitalier Universitaire de Sherbrooke (CHUS, Sherbrooke, QC, Canada). Bovine mastitis strains (S. aureus, S. chromogenes, S. haemolyticus, S. hominis, S. simulans) were obtained from the Canadian Bovine Mastitis and Milk Quality Research Network (CBRQMN, St-Hyacinthe, QC, Canada). Among these strains, S. aureus 2117 is a high producer of biofilm and was used in the biofilm-eradication assay. S. epidermidis isolates were provided by Centre de Recherche en Infectiologie (CRI) de Québec (Québec, QC, Canada).
(§2) The antibacterial activity of the most promising compound, PC206, was also evaluated against larger groups of clinical isolates of human and animal origin. The MIC50 and MIC90 values represented the concentrations of drug required to inhibit the growth of 50% and 90% of the bacterial strains tested, respectively.

The test system of the next assay is Bovine S. aureus. Described as above. The class given is cell-based, Staphylococcus aureus. The settings on record: Bovine S. aureus, 48 isolates, CAMHB with 2% NaCl.
Text: as §1, §2

The next assay deals with MRSA. The description is as above. In kind it is cell-based, Staphylococcus aureus. The settings on record: 42 isolates, CAMHB with 2% NaCl.
Text: as §1, §2

Assay [3] has as its system guanine riboswitch-lacZ fusion construct (xpt-lacZ). In words: Riboswitch regulation assay (lacZ-gene reporter). In kind it is cell-based, B. subtilis. The following applies: concentrations below the MIC of 0.25 µg/mL. From the text: The novel pyrimidine compounds, especially PC206, display specificity and potency against some staphylococci but not the other bacterial genus (Table 1 and Table 2). Because they are structurally derived from PC1 and PC2, these novel antibiotic candidates are expected to have the same mode of action. […] To verify this hypothesis, a strain of B. subtilis with a guanine riboswitch-lacZ fusion construct (named xpt-lacZ) integrated in its chromosome was exposed to these new antimicrobials. […] Therefore, it is an adequate reporter species. The metabolization of substrate ONPG into colored ONP was normalized by the bacterial suspension absorbance at 600 nm (Miller units) and relativized to the untreated condition.
β-galactosidase gene expression in the presence of the new pyrimidine analogs was studied, using an xpt-lacZ transcriptional fusion construct integrated in the genome of B. subtilis as previously described. Briefly, cultures were grown for 5 h at 35 °C in CAMHB, from an initial optical density of 0.05 at 600 nm (OD600), and then diluted 1:20 and in the presence of different concentrations of the compounds tested. Cultures were centrifuged for 10 min at 13,100 rpm, the supernatant was discarded, and pellets were suspended in a Z-buffer (NaH2PO4 40 mM, Na2HPO4 60 mM, MgSO4 1 mM, KCl 10 mM). Cultures OD600 were measured, and bacteria were then lysed with lysozyme (1 mg/mL) and β-mercaptoethanol 50 mM for 30 min. Lysates were centrifuged for 10 min at 13,100 rpm, and supernatants were incubated for 5 min at 30 °C with the substrate orthonitrophenyl-β-galactoside (ONPG; Sigma Aldrich). Reactions were stopped with Na2CO3 1M, supernatants OD420 were measured, and Miller units were calculated. A decrease in β-galactosidase activity indicated binding of the test compound to the riboswitch. Guanine and oxacillin were used as […] controls, respectively. The formula to measure Miller units is as follows: Millerunits=1000×OD420/t·v·OD600
Here, t represents the time of incubation with ONPG, and v represents the volume of the reaction.

The test system of a further assay is S. epidermidis. In words: Susceptibility of isolate panel (MIC50, MIC90, range). In kind it is cell-based. The following applies: S. epidermidis, 10 isolates, CAMHB with 2% NaCl.
Text: as §1, §2

For another assay, the system named is S. hominis. The description is as above. The class given is cell-based. The settings on record: Staphylococcus hominis, S. hominis, 10 isolates, CAMHB with 2% NaCl.
Text: as §1, §2

In another assay the test system is S. chromogenes. The assay is described as above. The settings on record: S. chromogenes, 5 isolates, CAMHB with 2% NaCl. The class given is cell-based.
Text: as §1, §2

Another assay has as its system S. simulans. The description is as above. The following applies: S. simulans, 5 isolates, CAMHB with 2% NaCl. The class given is cell-based.
Text: as §1, §2

The subject of assay [4] is Staphylococcus aureus CMRSA-10. Nature of the assay: Broth microdilution MIC. The class given is cell-based. The following applies: CMRSA10, S. aureus CMRSA-10, CAMHB supplemented with 2% NaCl, read-out: Broth Microdilution MIC.
Text: as §1

Assay [5] deals with Staphylococcus aureus CMRSA-2. Nature of the assay: Broth microdilution MIC. The class given is cell-based. The settings on record: CMRSA2, S. aureus CMRSA-2, CAMHB supplemented with 2% NaCl, read-out: Broth Microdilution MIC.
Text: as §1

Setting [6] is: Staphylococcus aureus, read-out: MIC50.
The mark [7] stands for this setting: Staphylococcus aureus, read-out: MIC90.

In brackets after ≈: the same amount, converted by molar mass. Where only a bound is given, the exact number is not on record here.

As usually defined, the MIC is the least concentration at which growth counts as inhibited. As a reminder, the MIC50 is an inhibitory concentration at the 50% level, which refers to growth in some studies and to a panel of isolates in others. What is called MIC90 is the lowest concentration that inhibits either 90% of growth or 90% of the strains tested, depending on the study. Consider `Cc1onc(-c2ccccc2)c1C(=O)N[C@@H]1C(=O)N2[C@@H]1SC(C)(C)[C@@H]2C(=O)O` [OXA, oxacillin], for which the MIC in assay [1] is 0.25 µg/mL (≈ 0.623 µM); in assay [2], 0.25 µg/mL (≈ 0.623 µM); in assay [4] it was 64 µg/mL (≈ 159 µM); in [5], over 64 µg/mL. The MIC50 in the assay with S. haemolitycus (read-out: MIC50) was over 16 µg/mL; in the assay on Bovine S. aureus (setting [6]) it was 0.12 µg/mL (≈ 0.299 µM); in the assay with MRSA (setting [6]), 32 µg/mL (≈ 79.7 µM); with S. epidermidis (Staphylococcus epidermidis, read-out: MIC50), 2 µg/mL (≈ 4.98 µM); in the assay with S. hominis (read-out: MIC50) it was 1 µg/mL (≈ 2.49 µM); in the assay on S. chromogenes (read-out: MIC50), 0.12 µg/mL (≈ 0.299 µM). Besides, in the assay on S. simulans (Staphylococcus simulans, read-out: MIC50), the MIC50 was found to be 0.06 µg/mL (≈ 0.149 µM). Also, the MIC90 in the assay on S. haemolitycus (read-out: MIC90) is over 16 µg/mL; in the assay with Bovine S. aureus (setting [7]), 0.25 µg/mL (≈ 0.623 µM); with MRSA (setting [7]), 64 µg/mL (≈ 159 µM); with S. epidermidis (Staphylococcus epidermidis, read-out: MIC90), over 16 µg/mL; in the assay with S. hominis (read-out: MIC90) it was over 16 µg/mL; in the assay on S. chromogenes (read-out: MIC90), 0.12 µg/mL (≈ 0.299 µM). Besides, the MIC90 with S. simulans (Staphylococcus simulans, read-out: MIC90) is 0.12 µg/mL (≈ 0.299 µM). Moreover, the “MIC Range” value against Bovine S. aureus lay within 0.03 to 32 µg/mL; in the assay with MRSA, 4 to 64 µg/mL; against S. epidermidis, 0.03 to 16 µg/mL; against S. chromogenes, 0.06 to 0.12 µg/mL; in the assay with S. simulans it was 0.06 to 0.12 µg/mL. For the same molecule, the “Effect on Miller units” value in assay [3] is “did not affect the expression of Miller units”.

(Values after article PMC10451377, “Rationally Designed Pyrimidine Compounds: Promising Novel Antibiotics for the Treatment of Staphylococcus aureus-Associated Bovine Mastitis” (Antibiotics, 2023).)
